The test system of the experiment is sweet cherries, 'Schneiders' variety. The experiment can be described thus: Field trial of cracking of sweet cherries after application of Tryptophane on cherry trees. The format is in vivo, Prunus avium L. The conditions noted are these: for Number of Damaged Fruits / Percentage of Damaged Fruits: 20 and 29 Jun. 2002, 300 cherries sampled at harvest, evaluated Jul. 7, 2002 after heavy rainfall. Here is the method:
The following Experiments describe the results of field trials, showing the reducing effect on the cracking of cherries by applying Tryptophane on cherry trees. The influence of the application of the anti-cracking formulation of the present invention on cracking of sweet cherries, was tested on the commercially available ‘Schneiders’ variety of sweet cherry in Belgium during the 2002 growing season. The plant density was approximately 1,646 stems per acre (666 stems/hectare or “ha”). Two different amounts of Tryptophane were applied on the cherry tries and compared with an untreated control. • Experiment 1: Control Group (No treatment with the anti-cracking formulation.) • Experiment 2: 0.0223 lb/acre (25 g/ha) Tryptophane, on 20 Jun. 2002, and 0.0223 lb/acre (25 g/ha) Tryptophane, on 29 Jun. 2002. • Experiment 3: 0.0446 lb/acre (50 g/ha) Tryptophane, on 20 Jun. 2002, and 0.0446 lb/acre (50 g/ha) Tryptophane, on 29 Jun. 2002.
On Jun. 20, 2002, the plants of Experiment 1 and Experiment 2, as listed above, were treated in the evening, under sunny conditions, 71.6° F. (22° C.), and little wind. The cherries began to ripen. On Jun. 29, 2002, the plants of Experiment 1 and Experiment 2 were again treated in the evening, at sunny growth conditions, under slightly cloudy skies, 68° F. (20° C.), and moderate wind. The ripening of the cherries was fully underway.
An evaluation of the cherries in the above Experiments were made on Jul. 7, 2002, after heavy rainfall. For the Experiment's Results, as listed in TABLE 1, below, 300 cherries were randomly sampled at harvest, from which the number of intact and damaged cherries was determined.

Setting [1] is: 2* 0.0223 lb/acre (25 g/ha) Tryptophane.
[2] abbreviates: 2*0.0446 lb/acre (50 g/ha) Tryptophane.

`N[C@@H](Cc1c[nH]c2ccccc12)C(=O)O` [Tryptophane]: under setting [1], the “Number of Damaged Fruits” value was 78 and the “Percentage of Damaged Fruits” value amounted to 26%. Under setting [2], the “Number of Damaged Fruits” value amounted to 42 and the “Percentage of Damaged Fruits” value amounted to 14%. The “reduction of the damage to the cherries” value (double application of 0.0446 lbs per acre (50 g per hectare), versus untreated control) is “approximately 50%”.

The values are drawn from US20060084577A1, “Formulation and application of Indole-Derivatives for avoiding fruit and vegetable cracking” (priority 2004, published 2006).
